The values below come from patent publication EP2758401B1 (Bayer Intellectual Property GmbH, priority 2011, dated 2013).

Assay [1] addresses T1, MKNK1 (Homo sapiens, UniProt Q9BUB5, T385D).
T1 construct: GST (N); purchased Carna Biosciences 02-145; host or cells: insect cells (baculovirus expression system)
Description: MKNK1 kinase assay (TR-FRET). It is filed as biochemical. Particulars: ATP final conc. 10 µM; 15 min pre-incubation; reaction time 45 min at 22°C. The procedure:
MKNK1-inhibitory activity of compounds of the present invention was quantified employing the MKNK1 TR-FRET assay as described in the following paragraphs.
As substrate for the kinase reaction the biotinylated peptide biotin-Ahx-[…] (C-terminus in amide form) was used which can be purchased e.g. form the company Biosyntan (Berlin-Buch, Germany).
For the assay 50 nL of a 100fold concentrated solution of the test compound in DMSO was pipetted into a black low volume 384well microtiter plate (Greiner Bio-One, Frickenhausen, Germany), 2 µL of a solution of MKNK1 in aqueous assay buffer [50 mM HEPES pH 7.5, 5 mM magnesium chloride, 1.0 mM dithiothreitol, 0.005% (v/v) Nonidet-P40 (Sigma)] was added and the mixture was incubated for 15 min at 22°C to allow pre-binding of the test compounds to the enzyme before the start of the kinase reaction. Then the kinase reaction was started by the addition of 3 µL of a solution of adenosine-tri-phosphate (ATP, 16.7 µM => final conc. in the 5 µL assay volume is 10 µM) and substrate (0.1 µM => final conc. in the 5 µL assay volume is 0.06 µM) in assay buffer and the resulting mixture was incubated for a reaction time of 45 min at 22°C.
The resulting mixture was incubated for 1 h at 22°C to allow the formation of complex between the phosphorylated biotinylated peptide and the detection reagents. Subsequently the amount of phosphorylated substrate was evaluated by measurement of the resonance energy transfer from the Eu-chelate to the streptavidine-XL. Therefore, the fluorescence emissions at 620 nm and 665 nm after excitation at 350 nm were measured in a TR-FRET reader, e.g. a Rubystar (BMG Labtechnologies, Offenburg, Germany) or a Viewlux (Perkin-Elmer). The ratio of the emissions at 665 nm and at […] was taken as the measure for the amount of phosphorylated substrate. The data were normalised (enzyme reaction without inhibitor = 0 % inhibition, all other assay components but no enzyme = 100 % inhibition). […] Table 1: MKNK1 IC50s

Assay [2] concerns the target T1, MKNK1. Nature of the assay: MKNK1 kinase high ATP assay (TR-FRET). Particulars: ATP final conc. 2 mM; 15 min pre-incubation; reaction time 30 min at 22°C. It is filed as biochemical. Here is the method:
MKNK1-inhibitory activity at high ATP of compounds of the present invention after their preincubation with MKNK1 was quantified employing the TR-FRET-based MKNK1 high ATP assay as described in the following paragraphs.
As substrate for the kinase reaction the biotinylated peptide biotin-Ahx-[…] (C-terminus in amide form) was used, which can be purchased e.g. from the company Biosyntan (Berlin-Buch, Germany).
For the assay 50 nL of a 100fold concentrated solution of the test compound in DMSO was pipetted into a black low volume 384well microtiter plate (Greiner Bio-One, Frickenhausen, Germany), 2 µL of a solution of MKNK1 in aqueous assay buffer [50 mM HEPES pH 7.5, 5 mM magnesium chloride, 1.0 mM dithiothreitol, 0.005% (v/v) Nonidet-P40 (Sigma)] was added and the mixture was incubated for 15 min at 22°C to allow pre-binding of the test compounds to the enzyme before the start of the kinase reaction. Then the kinase reaction was started by the addition of 3 µL of a solution of adenosine-tri-phosphate (ATP, 3.3 mM => final conc. in the 5 µL assay volume is 2 mM) and substrate (0.1 µM => final conc. in the 5 µL assay volume is 0.06 µM) in assay buffer and the resulting mixture was incubated for a reaction time of 30 min at 22°C. The concentration of MKNK1 was adjusted depending of the activity of the enzyme lot and was chosen appropriate to have the assay in the linear range, typical concentrations were in the range of 0.003 µg/mL. The reaction was stopped by the addition of 5 µL of a solution of TR-FRET detection reagents (5 nM streptavidine-XL665 [Cisbio Bioassays, Codolet, France] and 1 nM anti-ribosomal protein S6 (pSer236)-antibody from Invitrogen [# 44921G] and 1 nM LANCE EU-W1024 labeled ProteinG [Perkin-Elmer, product no. AD0071]) in an aqueous EDTA-solution (100 mM EDTA, 0.1 % (w/v) bovine serum albumin in 50 mM HEPES pH 7.5).
The resulting mixture was incubated for 1 h at 22°C to allow the formation of complex between the phosphorylated biotinylated peptide and the detection reagents. Subsequently the amount of phosphorylated substrate was evaluated by measurement of the resonance energy transfer from the Eu-chelate to the streptavidine-XL. Therefore, the fluorescence emissions at 620 nm and 665 nm after excitation at 350 nm were measured in a TR-FRET reader, e.g. a Rubystar (BMG Labtechnologies, Offenburg, Germany) or a Viewlux (Perkin-Elmer). The ratio of the emissions at 665 nm and at […] was taken as the measure for the amount of phosphorylated substrate. The data were normalised (enzyme reaction without inhibitor = 0 % inhibition, all other assay components but no enzyme = 100 % inhibition).

T1 sequence (Q9BUB5 1-424 isoform Q9BUB5-2 T344D): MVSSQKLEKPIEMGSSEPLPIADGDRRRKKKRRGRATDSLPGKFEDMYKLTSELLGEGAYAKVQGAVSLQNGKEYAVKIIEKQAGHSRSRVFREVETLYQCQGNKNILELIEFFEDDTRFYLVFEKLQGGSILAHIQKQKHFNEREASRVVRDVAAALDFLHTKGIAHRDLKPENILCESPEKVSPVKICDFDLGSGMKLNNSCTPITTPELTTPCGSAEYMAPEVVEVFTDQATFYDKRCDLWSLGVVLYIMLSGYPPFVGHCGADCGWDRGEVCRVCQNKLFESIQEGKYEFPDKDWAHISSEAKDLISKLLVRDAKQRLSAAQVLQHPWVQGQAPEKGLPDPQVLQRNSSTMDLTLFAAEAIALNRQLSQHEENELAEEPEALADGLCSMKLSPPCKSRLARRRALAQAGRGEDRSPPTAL

As to `N[C@H](COc1ccc2ncc(-c3cc4ccccc4o3)n2n1)Cc1ccccc1` [Example 50, (2S)-1-{[3-(1-Benzofuran-2-yl)imidazo[1,2-b]pyridazin-6-yl]oxy}-3-phenyl-propan-2-amine], the IC50 (in general, the concentration that gives 50% inhibition) in assay [1] is 27 nM; in assay [2] it was 54 nM.

Regarding `C[C@H](N)COc1ccc2ncc(-c3cc4c(F)cccc4o3)n2n1` [Example 45, (2S)-1-{[3-(4-Fluoro-1-benzofuran-2-yl)imidazo[1,2-b]pyridazin-6-yl]oxy}-propan-2-amine], the IC50 in assay [1] turned out to be 17 nM; in assay [2], 71 nM.

As to `NCCOc1ccc2ncc(-c3cc4ccccc4o3)n2n1` [Example 12, 2-{[3-(1-Benzofuran-2-yl)imidazo[1,2-b]pyridazin-6-yl]oxy}ethanamine], the IC50 in assay [1] was 10 nM; in assay [2] it was 27 nM.

Regarding `C[C@H](CN)Oc1ccc2ncc(-c3cc4cc(Cl)ccc4o3)n2n1` [Example 15, (2R)-2-{[3-(5-Chloro-1-benzofuran-2-yl)imidazo[1,2-b]pyridazin-6-yl]oxy}-propan-1-amine], the results for the IC50 in assay [1] and in assay [2] were 36 nM and 197 nM, respectively.

Turning to `N[C@H]1C[C@H](Oc2ccc3ncc(-c4cc5cc(F)ccc5o4)n3n2)C1` [Example 39, trans-3-{[3-(5-Fluoro-1-benzofuran-2-yl)imidazo[1,2-b]pyridazin-6-yl]oxy}-cyclobutanamine], the IC50 stood at 3 nM in assay [1] and 6 nM in assay [2].

With `NCC1(COc2ccc3ncc(-c4cc5ccccc5o4)n3n2)COC1` [Example 44, 1-[3-({[3-(1-Benzofuran-2-yl)imidazo[1,2-b]pyridazin-6-yl]oxy}methyl)oxetan-3-yl]methanamine], the values for the IC50 in assay [1] and in assay [2] were 52 nM and 63 nM, respectively.

`Cc1ccc2oc(-c3cnc4ccc(O[C@H](C)CN)nn34)cc2c1` [Example 49]: the IC50 in assay [1] came to 88 nM; in assay [2], 154 nM.

With `C[C@H](CN)Oc1ccc2ncc(-c3cc4cccc(F)c4o3)n2n1` [Example 48, (2R)-2-{[3-(7-Fluoro-1-benzofuran-2-yl)imidazo[1,2-b]pyridazin-6-yl]oxy}-propan-1-amine], the IC50 was 71 nM in assay [1] and 115 nM in assay [2].

As to `NCCCCOc1ccc2ncc(-c3cc4ccccc4o3)n2n1` [Example 8, 4-{[3-(1-Benzofuran-2-yl)imidazo[1,2-b]pyridazin-6-yl]oxy}butan-1-amine], the 50% inhibitory concentration (IC50) came out at 7 nM in assay [1] and 17 nM in assay [2].

For `CC(C)(N)CCOc1ccc2ncc(-c3cc4ccccc4o3)n2n1` [Example 14, 4-{[3-(1-Benzofuran-2-yl)imidazo[1,2-b]pyridazin-6-yl]oxy}-2-methylbutan-2-amine], the IC50 turned out to be 20 nM in assay [1] and 39 nM in assay [2].

For the molecule `COc1ccc2oc(-c3cnc4ccc(O[C@H]5C[C@H](N)C5)nn34)cc2c1` [Example 38, trans-3-{[3-(5-Methoxy-1-benzofuran-2-yl)imidazo[1,2-b]pyridazin-6-yl]oxy}-cyclobutanamine], the IC50 stood at 3 nM in assay [1] and 6 nM in assay [2].

Turning to `COc1cccc2oc(-c3cnc4ccc(OCC(N)C5CC5)nn34)cc12` (stereo not drawn) [Example 41, 1-Cyclopropyl-2-{[3-(4-methoxy-1-benzofuran-2-yl)imidazo[1,2-b]pyridazin-6-yl]oxy}ethanamine], the IC50 in assay [1] is 12 nM; in assay [2] it was 27 nM.
